# Laboratory results as given in US11897862B2 (Gilead Sciences, Inc., priority 2022, dated 2024).
# How the values were obtained:
# Type in all cases: cell-based
# IKZF1 = target: T1, IKZF1 (Homo sapiens, UniProt Q13422+Q96SW2); test: HEK293 HiBiT in vitro degradation of IKZF1; settings: for Dmax: HEK293, HEK293 HiBiT, maximum degradation at the highest concentration tested; for DC50: HEK293 HiBiT, 18-24 hr incubation, normalized to DMSO control, read-out: IKZF1 EC50
# T1 construct: expressed in transfected cells
# Procedure, shortened: (§1)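 Stable HEK293 reporter pools, each with one integrated tet-inducible copy of a HiBiT-tagged target, were induced with doxycycline overnight at 37 °C. After 18-24 h with compound dilution series, Nano-Glo lysis and luminescence yielded EC50 and Dmax values.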
# IKZF2 [1] = target: T2, IKZF2 (Homo sapiens, UniProt Q96SW2+Q9UKS7); test: Human whole blood IKZF2 degradation (flow cytometry, CD4/CD25/Foxp3+ Treg cells); set-up: endogenous in cells; settings: 24 hrs incubation, IKZF2 MFI in CD4/CD25/Foxp3+ Treg cells, flow cytometry; for DC50: read-out: IKZF2 EC50
# Procedure, shortened: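 Fresh healthy-donor human whole blood stimulated with CD3/CD28 activator and serially diluted compound for 24 hrs at 37° C. IKZF2 MFI in CD4/CD25/Foxp3+ Tregs (IKZF1 MFI in CD4+ T cells) measured by flow cytometry after RBC lysis, fixation, permeabilization. EC50 and Dmax versus DMSO wells.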
# Target sequence in this assay (Q9UKS7 whole entry): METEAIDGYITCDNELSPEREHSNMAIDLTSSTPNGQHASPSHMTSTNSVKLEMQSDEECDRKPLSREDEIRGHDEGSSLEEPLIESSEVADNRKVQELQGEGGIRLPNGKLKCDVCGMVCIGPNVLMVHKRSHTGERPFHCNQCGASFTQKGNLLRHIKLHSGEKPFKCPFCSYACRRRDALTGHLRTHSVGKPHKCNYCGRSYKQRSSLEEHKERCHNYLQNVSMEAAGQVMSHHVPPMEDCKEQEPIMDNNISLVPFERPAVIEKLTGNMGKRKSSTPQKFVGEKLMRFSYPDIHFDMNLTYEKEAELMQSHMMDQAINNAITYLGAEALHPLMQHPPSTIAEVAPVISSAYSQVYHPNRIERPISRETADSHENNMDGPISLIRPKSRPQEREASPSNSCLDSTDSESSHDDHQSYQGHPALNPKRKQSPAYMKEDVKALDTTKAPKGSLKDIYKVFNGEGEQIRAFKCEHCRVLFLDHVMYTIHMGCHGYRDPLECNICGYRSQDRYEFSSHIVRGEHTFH
# Target sequence in this assay (Q96SW2 whole entry): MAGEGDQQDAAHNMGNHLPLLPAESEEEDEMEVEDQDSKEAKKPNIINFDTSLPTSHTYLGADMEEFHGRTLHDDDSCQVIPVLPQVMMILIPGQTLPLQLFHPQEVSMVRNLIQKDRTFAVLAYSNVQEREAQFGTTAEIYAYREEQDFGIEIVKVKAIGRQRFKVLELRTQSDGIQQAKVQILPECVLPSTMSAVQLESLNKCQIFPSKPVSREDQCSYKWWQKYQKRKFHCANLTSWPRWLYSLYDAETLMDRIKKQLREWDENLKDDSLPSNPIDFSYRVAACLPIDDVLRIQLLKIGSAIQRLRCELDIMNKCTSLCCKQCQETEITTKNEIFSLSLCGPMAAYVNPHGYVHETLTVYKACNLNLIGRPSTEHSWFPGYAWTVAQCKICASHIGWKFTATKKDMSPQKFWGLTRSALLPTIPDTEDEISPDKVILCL
# Target sequence in this assay (Q16531 whole entry partner): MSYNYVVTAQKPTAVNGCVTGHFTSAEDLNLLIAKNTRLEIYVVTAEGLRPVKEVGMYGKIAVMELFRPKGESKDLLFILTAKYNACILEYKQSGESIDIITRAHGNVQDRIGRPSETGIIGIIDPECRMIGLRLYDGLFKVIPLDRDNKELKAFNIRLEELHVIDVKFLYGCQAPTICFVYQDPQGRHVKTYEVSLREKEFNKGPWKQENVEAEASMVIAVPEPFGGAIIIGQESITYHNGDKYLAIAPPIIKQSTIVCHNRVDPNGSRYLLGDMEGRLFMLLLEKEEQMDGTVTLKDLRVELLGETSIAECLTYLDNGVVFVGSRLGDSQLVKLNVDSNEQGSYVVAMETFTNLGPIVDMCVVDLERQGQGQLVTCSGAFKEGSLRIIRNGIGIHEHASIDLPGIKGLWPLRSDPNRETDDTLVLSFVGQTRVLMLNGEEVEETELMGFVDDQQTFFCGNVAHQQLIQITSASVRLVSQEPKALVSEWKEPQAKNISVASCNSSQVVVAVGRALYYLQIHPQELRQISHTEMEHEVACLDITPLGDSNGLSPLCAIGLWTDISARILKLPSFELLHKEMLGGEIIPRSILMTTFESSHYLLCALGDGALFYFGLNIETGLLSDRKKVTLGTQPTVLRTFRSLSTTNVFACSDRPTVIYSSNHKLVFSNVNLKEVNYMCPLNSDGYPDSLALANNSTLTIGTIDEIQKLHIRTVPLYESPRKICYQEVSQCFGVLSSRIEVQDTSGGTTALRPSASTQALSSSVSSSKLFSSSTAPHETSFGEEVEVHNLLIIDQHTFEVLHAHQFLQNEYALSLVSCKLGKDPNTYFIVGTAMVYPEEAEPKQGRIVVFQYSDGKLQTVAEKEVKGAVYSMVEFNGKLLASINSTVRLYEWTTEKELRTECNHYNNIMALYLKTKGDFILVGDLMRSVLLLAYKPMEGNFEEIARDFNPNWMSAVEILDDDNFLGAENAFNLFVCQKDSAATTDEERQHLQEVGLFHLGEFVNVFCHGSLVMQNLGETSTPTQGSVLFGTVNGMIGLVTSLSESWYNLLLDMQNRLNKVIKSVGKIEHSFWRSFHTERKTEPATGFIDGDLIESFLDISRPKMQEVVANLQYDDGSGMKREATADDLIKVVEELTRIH
# IKZF2 [2] = target: T2, IKZF2; test: HEK293 HiBiT in vitro degradation of IKZF2; set-up: expressed in transfected cells; settings: for Dmax: HEK293, HEK293 HiBiT; for DC50: 18-24 hr incubation, normalized to DMSO control, read-out: IKZF2 EC50
# Procedure, shortened: as §1
# Target sequence in this assay (Q9UKS7 1-500 isoform Q9UKS7-2): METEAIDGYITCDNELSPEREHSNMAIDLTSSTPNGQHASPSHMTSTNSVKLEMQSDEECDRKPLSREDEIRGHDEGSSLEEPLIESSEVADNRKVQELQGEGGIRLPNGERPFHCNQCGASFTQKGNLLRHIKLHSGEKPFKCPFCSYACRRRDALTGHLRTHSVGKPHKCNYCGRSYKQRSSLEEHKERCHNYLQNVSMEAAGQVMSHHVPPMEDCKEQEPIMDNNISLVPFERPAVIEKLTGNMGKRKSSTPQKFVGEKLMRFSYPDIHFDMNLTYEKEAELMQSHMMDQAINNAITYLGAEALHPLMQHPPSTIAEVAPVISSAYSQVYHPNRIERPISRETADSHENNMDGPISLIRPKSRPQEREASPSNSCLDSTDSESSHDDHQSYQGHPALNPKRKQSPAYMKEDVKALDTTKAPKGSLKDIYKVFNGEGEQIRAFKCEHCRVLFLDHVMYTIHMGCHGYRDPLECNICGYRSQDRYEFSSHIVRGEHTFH
# Target sequence in this assay (Q96SW2 whole entry): as the sequence (Q96SW2 whole entry) above
# Target sequence in this assay (Q16531 whole entry partner): as the sequence (Q16531 whole entry partner) above
# IKZF2 [3] = target: T2, IKZF2; test: HEK293 IKZF2 degradation kinetics (HiBiT, timepoints 1-24 h); set-up: expressed in transfected cells; settings: for kinact: HEK293, IKZF2, timepoints 1, 2, 3, 4.5 and 24 hour, read-out: Maximum degradation rate Kinact (converted)
# Procedure: The assay technology and principles for evaluating IKZF2 degradation kinetics in HEK293 cells was identical to the HEK293 degradation assay as described above. Additional details are briefly described below.
# On Day 1, Cells were grown and induced the same as described above. On Days 2 and 3, compounds for testing were dispensed via ECHO and cells were lifted and plated into compound-spotted assay plates as above. Plates were returned to the 37° C. incubator until addition of Nano-Glo lytic reagent at 1, 2, 3, 4.5, and 24 hour timepoints. At these timepoints, plates were read on Envision reader as above.
# All raw data was normalized to DMSO control (final concentration: 0.5%) wells as POC and plotted out as a function of time to generate the degradation rate constant (K) value. The maximum degradation rate (Kinact) was determined by plotting the K value as a function of concentration for each compound tested. Kinact values are shown in Table 25 and the degradation rate plots as well as timecourse of degradation are shown for select compounds in FIG. 1A, FIG. 1B, FIG. 2A and FIG. 2B.
# Target sequence in this assay (Q9UKS7 1-500 isoform Q9UKS7-2): as the sequence (Q9UKS7 1-500 isoform Q9UKS7-2) above
# Target sequence in this assay (Q96SW2 whole entry): as the sequence (Q96SW2 whole entry) above
# Target sequence in this assay (Q16531 whole entry partner): as the sequence (Q16531 whole entry partner) above
# SALL4 = target: T3, SALL4 (Homo sapiens, UniProt Q96SW2+Q9UJQ4); test: HEK293 HiBiT in vitro degradation of SALL4; settings: for DC50: 18-24 hr incubation, normalized to DMSO control, read-out: SALL4 EC50
# T3 construct: expressed in transfected cells
# Procedure: In vitro degradation of IKZF1, IKZF2, and SALL4 was measured using HiBiT protein tagging and detection technology (Promega).
# HiBit technology was used to develop the quantitative assays to measure the cellular IKZFs level by tagging an 11 amino acid HiBit peptides […] to the protein of interest. Reporter plasmids were generated by fusing a linker sequence ([…]) followed by the HiBit tag at the C-terminus of IKZF1, IKZF2, and SALL4. The fusion fragments were subsequently cloned into pcDNA5 pcDNA™5/FRT/TO plasmids (Thermo Fisher, cat #V652020) downstream of the tetracycline operator. The resulting plasmids were co-transfected with pOG44 Flp-Recombinase Expression Vector (Thermo Fisher, cat #V600520) into Flp-In™ T-REx HEK293 line (Thermo Fisher, cat #R78077) and a stable cell pool was selected by adding 100 µg/ml of Hygromycin (Thermo Fisher, cat #10687010). The reporter cell enabled Tet-On inducible reporter expression from a single copy of the integrated gene.
# On Day 1, Cells were grown to ˜80% confluency in tissue culture medium (DMEM Glutamax (Gibco10569), 10% Tet free FBS (Takara 631106), and PenStrep Glutamin (Gibco 10378)) in tissue culture flasks. Doxycycline was then added to a final concentration of […] to induce reporter expression at 37° C. overnight.
# On Day 2, 125 nL of serially-diluted solution of testing compounds were dispensed into 384-well white solid assay plates via ECHO acoustic liquid handler. Cells were lifted by 0.25% Trypsin (Gibco 25200) then pelleted by centrifugation (Beckman Avanti J-E) at 500×g for 5 min. Cell pellets were resuspended in TC medium at the concentration of 3e5/mL and 25 μL of cell suspension were added into each well of compound-spotted plates. The plates were returned to a 37° C. incubator overnight (18-24 hr).
# On Day 3, assay plates were removed from the tissue culture incubator and 25 μL of Nano-Glo lytic detection system (Promega, cat #N3030) was added to each well. Plates were incubated at r.t. for 3 min with shaking, and luminescence was read using an Envision reader (Perkin Elmer).
# To assess the IKZF1, IKZF2, and SALL4 degrader potential of exemplified compounds of this disclosure and certain Reference Compounds EC50 and Dmax values were determined for the compounds of Examples 1 to 383 and Reference Compounds A-1, B-1, B-2, B-3, B-4, and C-1 in the HiBiT assays. Asterisks (*) indicate examples for which the data shown represents an average of n≥3.
# [4] = maximum degradation at the highest concentration tested
# T3 sequence (Q9UJQ4 whole entry): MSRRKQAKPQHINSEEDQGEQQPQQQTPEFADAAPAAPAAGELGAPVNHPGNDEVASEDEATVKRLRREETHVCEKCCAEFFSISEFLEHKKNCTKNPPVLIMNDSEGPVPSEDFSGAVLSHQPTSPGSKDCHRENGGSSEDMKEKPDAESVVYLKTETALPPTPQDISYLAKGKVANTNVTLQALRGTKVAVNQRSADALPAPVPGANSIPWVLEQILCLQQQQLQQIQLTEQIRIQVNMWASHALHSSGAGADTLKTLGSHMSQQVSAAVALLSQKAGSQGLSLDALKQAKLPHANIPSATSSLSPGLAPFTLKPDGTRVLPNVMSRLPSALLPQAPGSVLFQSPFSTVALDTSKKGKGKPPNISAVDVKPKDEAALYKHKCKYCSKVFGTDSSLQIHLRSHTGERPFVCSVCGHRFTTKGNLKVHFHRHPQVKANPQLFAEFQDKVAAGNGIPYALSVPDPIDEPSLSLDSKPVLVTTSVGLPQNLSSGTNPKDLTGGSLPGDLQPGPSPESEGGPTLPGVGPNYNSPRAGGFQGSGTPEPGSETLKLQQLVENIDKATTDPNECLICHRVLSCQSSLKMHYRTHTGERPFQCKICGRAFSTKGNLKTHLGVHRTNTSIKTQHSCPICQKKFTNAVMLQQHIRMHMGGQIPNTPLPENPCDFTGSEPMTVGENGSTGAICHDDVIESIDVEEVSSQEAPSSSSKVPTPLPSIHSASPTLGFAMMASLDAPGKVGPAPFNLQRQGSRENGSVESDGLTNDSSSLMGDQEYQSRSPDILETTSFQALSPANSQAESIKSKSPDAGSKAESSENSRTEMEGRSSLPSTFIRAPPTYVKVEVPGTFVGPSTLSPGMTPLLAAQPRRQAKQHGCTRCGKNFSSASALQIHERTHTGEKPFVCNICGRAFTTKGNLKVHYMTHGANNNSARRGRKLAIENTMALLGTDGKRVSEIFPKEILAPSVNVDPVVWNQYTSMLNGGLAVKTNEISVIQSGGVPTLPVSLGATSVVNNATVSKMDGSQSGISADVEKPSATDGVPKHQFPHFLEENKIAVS
# T3 sequence (Q96SW2 whole entry): as the sequence (Q96SW2 whole entry) above
# T3 sequence (Q16531 whole entry partner): as the sequence (Q16531 whole entry partner) above
# T1 sequence (Q13422 whole entry): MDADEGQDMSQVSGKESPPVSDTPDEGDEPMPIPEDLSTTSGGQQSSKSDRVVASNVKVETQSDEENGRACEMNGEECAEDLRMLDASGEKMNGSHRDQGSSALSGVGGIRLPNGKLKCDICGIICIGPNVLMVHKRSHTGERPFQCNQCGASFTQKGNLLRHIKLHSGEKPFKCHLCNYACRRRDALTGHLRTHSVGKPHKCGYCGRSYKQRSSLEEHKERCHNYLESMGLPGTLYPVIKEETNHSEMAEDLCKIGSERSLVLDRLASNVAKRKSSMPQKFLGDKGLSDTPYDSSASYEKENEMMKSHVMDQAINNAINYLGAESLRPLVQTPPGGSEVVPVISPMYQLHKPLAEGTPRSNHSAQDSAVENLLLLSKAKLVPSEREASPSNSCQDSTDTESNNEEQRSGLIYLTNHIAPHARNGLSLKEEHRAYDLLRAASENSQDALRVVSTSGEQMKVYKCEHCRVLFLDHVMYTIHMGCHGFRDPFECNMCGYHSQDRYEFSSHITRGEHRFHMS
# T1 sequence (Q96SW2 whole entry): as the sequence (Q96SW2 whole entry) above
# T1 sequence (Q16531 whole entry partner): as the sequence (Q16531 whole entry partner) above
Compound,Dmax (IKZF1) [%],DC50 (IKZF1) [nM],Dmax (IKZF2 [1]) [%],DC50 (IKZF2 [1]) [nM],Dmax (IKZF2 [2]; [4]) [%],DC50 (IKZF2 [2]; HEK293 HiBiT) [nM],kinact (IKZF2 [3]) [s⁻¹],DC50 (SALL4) [nM],"IKZF2 Dmax (IKZF2 [2]; HEK293 HiBiT, maximum degradation at the highest concentration tested) [%]","speed of IKZF2 degradation compared with Reference Compounds A-1, B-3, B-4, C-1 (IKZF2 [3]; HEK293)",Dmax (SALL4; [4]) [%]
"O=C1CCC(N2Cc3c(ccc(C[C@H]4OCCC[C@@H]4NC4CCC(C(F)(F)F)CC4)c3F)C2=O)C(=O)N1 (single isomer, unassigned) [Example 257]",34,69,93,5,99,3,0.000133,,,,
"O=C1CCC(N2Cc3c(ccc(C[C@H]4OCCC[C@@H]4N[C@H]4CC[C@H](F)CC4)c3F)C2=O)C(=O)N1 (single isomer, unassigned) [Example 289]",31,632,90,5,97,5,0.000131,> 10000,,,
"O=C1CCC(N2Cc3c(ccc(C[C@H]4OCCC[C@@H]4N[C@H]4CC[C@@H](F)CC4)c3F)C2=O)C(=O)N1 (single isomer, unassigned) [Example 290]",27,138,96,6,98,4,,> 10000,,,
"CC(N[C@H]1CCCO[C@@H]1Cc1ccc2c(c1F)CN(C1CCC(=O)NC1=O)C2=O)C1CCOCC1 (single isomer, unassigned) [Example 291]",,> 1000,96,5,94,10,8.61e-05,> 10000,,,
"CC1CC[C@H](NC2CCC(F)(F)CC2)[C@@H](Cc2ccc3c(c2)CN(C2CCC(=O)NC2=O)C3=O)C1 (single isomer, unassigned) [Example 325]",,> 1000,,,,5,0.000108,> 10000,95,,
"O=C1CC[C@@H](N2Cc3c(ccc(C[C@H]4OCCC[C@@H]4N[C@H]4CC[C@H](F)CC4)c3F)C2=O)C(=O)N1 (single isomer, unassigned) [Example 373]",,> 1000,,,94,7,0.000111,,,,
"O=C1CCC(N2Cc3cc(C[C@H]4CCCC[C@@H]4NCc4ccccc4)ccc3C2=O)C(=O)N1 (stereo partly drawn) [Example 2, 3-(5-(((1R,2S)-2-(benzylamino)cyclohexyl)methyl)-1-oxoisoindolin-2-yl)piperidine-2,6-dione]",,> 10000,,,88,18,0.000147,,,faster degradation of IKZF2,
"O=C1CCC(N2Cc3cc(C[C@H]4CCCC[C@@H]4NC4CCCCC4)ccc3C2=O)C(=O)N1 (stereo partly drawn) [Example 53, 3-(5-(((1R,2S)-2-(cyclohexylamino)cyclohexyl)methyl)-1-oxoisoindolin-2-yl)piperidine-2,6-dione]",,> 1000,96,4,96,3,0.000147,,,,
"O=C1CCC(N2Cc3c(ccc(C[C@H]4CCCC[C@@H]4NC4CCCC4)c3F)C2=O)C(=O)N1 (stereo partly drawn) [Example 87, 3-(5-(((1R,2S)-2-(cyclopentylamino)cyclohexyl)methyl)-4-fluoro-1-oxoisoindolin-2-yl)piperidine-2,6-dione]",39,62,95,3,98,2,0.000139,,,,
O=C1CCC(N2Cc3c(ccc(C[C@H]4CCCC[C@@H]4NC4CCOCC4)c3F)C2=O)C(=O)N1 (some centres unmarked) [Example 116],34,44,89,1,98,2,0.00015,,,,
O=C1CCC(N2Cc3c(ccc(C[C@H]4OCCC[C@@H]4NC4CCCCC4)c3F)C2=O)C(=O)N1 (some centres unmarked) [Example 181],,> 1000,99,8,96,6,0.000106,,,,
CO[C@H]1CC[C@H](Cc2ccc3c(c2)CN(C2CCC(=O)NC2=O)C3=O)[C@@H](NC2CCC(F)(F)CC2)C1 (some centres unmarked) [Example 344],51,41,,,93,6,,> 10000,,,
O=C1CCC(N2Cc3cc(C[C@H]4CCCC[C@@H]4NC4CCc5[nH]nc(C(F)(F)F)c5C4)ccc3C2=O)C(=O)N1 (some centres unmarked) [Example 352],47,323,,,99,3,,3100,,,47
Cn1ncc2c1CCC(N[C@H]1CCCC[C@@H]1Cc1ccc3c(c1)CN(C1CCC(=O)NC1=O)C3=O)C2 (some centres unmarked) [Example 377],48,73,,,97,5,,> 10000,,,
O=C1CCC(N2Cc3cc(O[C@H]4CCCC[C@@H]4NCc4ccccc4)ccc3C2=O)C(=O)N1 (some centres unmarked) [Example B-3],,,,,84,,5.56e-05,,,,
O=C1CCC(N2Cc3cc(N[C@H]4CCCC[C@@H]4NCc4ccccc4)ccc3C2=O)C(=O)N1 (some centres unmarked) [Example C-1],,,,,64,,8.33e-06,,,,
